Paper PMC9767310 (Journal of chemical information and modeling, 2022)
Entries after “also recorded” stand apart in the source; their conditions may differ. Where a name gives a salt, the structure may show the parent alone. Values belong to the molecule of their own block, whether it stands above or below them.

How the values were obtained:
αVβ3 [1] = biological target: T1, αVβ3 (Homo sapiens, UniProt P05106+P06756); assay: αVβ3-mediated cell adhesion to fibrinogen; type: cell-based
αVβ3 [2] = biological target: T1, αVβ3; assay: Monoclonal antibody AP5 binding assay; type: cell-based
[3] = biological target: recombinant αVβ3 ectodomain (Homo sapiens, UniProt P05106+P06756); assay: Negative-stain electron microscopy of αVβ3 ectodomain conformation

Structure (SMILES): OCC[C@@H]1CN(c2ccnc3ccccc23)CCN1Cc1ccc2c(n1)NCCC2 [MSR01R, (R)-2-(4-(quinolin-4-yl)-1-((5,6,7,8-tetrahydro-1,8-naphthyridin-2-yl)methyl)piperazin-2-yl)ethan-1-ol hydrochloride]
IC50 (αVβ3 [1]): 1300 ± 330 nM

Structure (SMILES): c1ccc2c(N3CCN(Cc4ccc5c(n4)NCCC5)CC3)ccnc2c1 [MSR02, 7-((4-(quinolin-4-yl)piperazin-1-yl)methyl)-1,2,3,4-tetrahydro-1,8-naphthyridine]
IC50 (αVβ3 [1]): 2000 ± 1730 nM

Structure (SMILES): Cl.Cl.O=C(NCCCc1ccc2c(n1)NCCC2)Nc1ccnc2ccccc12 [MSR03, 1-(quinolin-4-yl)-3-(3-(5,6,7,8-tetrahydro-1,8-naphthyridin-2-yl)propyl)urea dihydrochloride]
IC50 (αVβ3 [1]): 1600 ± 580 nM
increase in potency vs ZINC72424116 (αVβ3 [1]; adhesion IC50): 3.5 fold
EC50 (αVβ3 [2]; EC50 (half-maximal exposure of the AP5 epitope), MSR03 dihydrochloride prepared in 1 M NaCl, n = 3): > 300000 nM
exposure of the AP5 epitope (in words) (αVβ3 [2]; HEK-αVβ3 cells): did not expose the AP5 epitope; also recorded: does not expose the epitope for the ligand-induced binding site of antibody AP5
receptor extension and swing-out by negative-stain EM (in words) [3]: does not induce receptor extension and swing-out
percentage of αVβ3 in the active, extended-open conformation ([3]; 312 μM, control 5%): did not increase this percentage

Other lines, results leading:

inhibition of αVβ3-mediated cell adhesion (positive control) (αVβ3 [1]; 3 nM): > 90%
Structure (SMILES): COc1ccc([C@H](CC(=O)O)N2CCN(CCCc3ccc4c(n3)NCCC4)C2=O)cn1 [MK-429, reference compound]

IC50 (αVβ3 [1]): 1000 ± 300 nM
Structure (SMILES): OCC[C@H]1CN(c2ccnc3ccccc23)CCN1Cc1ccc2c(n1)NCCC2 [MSR01S, (S)-2-(4-(quinolin-4-yl)-1-((5,6,7,8-tetrahydro-1,8-naphthyridin-2-yl)methyl)-piperazin-2-yl)ethan-1-ol hydrochloride]
